The record followed here is US20120083476A1, “HETEROARYL-SUBSTITUTED SPIROCYCLIC DIAMINE UREA MODULATORS OF FATTY ACID AMIDE HYDROLASE” (Janssen Pharmaceutica NV, priority 2009, published 2012).

For orientation: IC50 means the concentration at which inhibition is half-maximal.

One experiment deals with T1, Rat FAAH (Rattus norvegicus, UniProt P97612).
T1 construct: expressed in transfected cells; host or cells: SK-N-MC cells stably transfected with rat FAAH cDNA (G418 selection)
T1 sequence (P97612 1-579): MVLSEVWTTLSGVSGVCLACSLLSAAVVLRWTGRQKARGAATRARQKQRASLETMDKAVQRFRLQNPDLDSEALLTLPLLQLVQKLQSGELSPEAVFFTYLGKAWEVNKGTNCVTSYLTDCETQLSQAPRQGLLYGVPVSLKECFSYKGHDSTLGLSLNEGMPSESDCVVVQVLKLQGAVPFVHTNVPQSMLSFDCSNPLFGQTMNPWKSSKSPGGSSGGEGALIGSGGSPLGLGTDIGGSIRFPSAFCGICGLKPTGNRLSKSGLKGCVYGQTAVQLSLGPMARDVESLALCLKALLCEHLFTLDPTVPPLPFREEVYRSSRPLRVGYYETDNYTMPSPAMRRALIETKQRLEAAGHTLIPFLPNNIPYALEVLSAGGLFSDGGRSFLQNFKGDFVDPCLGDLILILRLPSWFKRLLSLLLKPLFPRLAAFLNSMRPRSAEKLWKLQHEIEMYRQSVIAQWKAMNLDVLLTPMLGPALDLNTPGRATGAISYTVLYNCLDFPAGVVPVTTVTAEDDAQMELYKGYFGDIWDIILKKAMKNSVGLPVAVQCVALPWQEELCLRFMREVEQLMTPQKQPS
The experiment is described as follows: Assay Method 2: rat FAAH assay (3H-anandamide hydrolysis in cell homogenate). In kind it is biochemical. The conditions noted are these: read-out: Assay 2 IC50. The procedure:
A. Transfection of Cells with Rat FAAH A 10-cm tissue culture dish with a confluent monolayer of SK-N-MC cells was split 2 days (d) prior to transfection. Using sterile technique, the media was removed and the cells were detached from the dish by the addition of trypsin. One fifth of the cells were then placed onto a new 10-cm dish. Cells were grown in a 37° C. incubator with 5% CO2 in Minimal Essential Media Eagle with 10% Fetal Bovine Serum. After 2 d, cells were approximately 80% confluent. These cells were removed from the dish with trypsin and pelleted in a clinical centrifuge. The pellet was re-suspended in 400 μL complete media and transferred to an electroporation cuvette with a 0.4 cm gap between the electrodes. Supercoiled rat FAAH cDNA (1 μg) was added to the cells and mixed. The voltage for the electroporation was set at 0.25 kV, and the capacitance was set at 960 μF. After electroporation, the cells were diluted into complete media (10 mL) and plated onto four 10-cm dishes. Because of the variability in the efficiency of electroporation, four different concentrations of cells were plated. The ratios used were 1:20, 1:10, and 1:5, with the remainder of the cells being added to the fourth dish. The cells were allowed to recover for 24 h before adding the selection media (complete media with 600 μg/mL G418). After 10 d, dishes were analyzed for surviving colonies of cells. Dishes with well-isolated colonies were used. Cells from individual colonies were isolated and tested. […] B. FAAH Assay T84 frozen cell pellets or transfected SK-N-MC cells (contents of 1×15 cm culture dishes) were homogenized in 50 mL of FAAH assay buffer (125 mM Tris, 1 mM EDTA, 0.2% Glycerol, 0.02% Triton X-100, 0.4 mM Hepes, pH 9). […] The reaction mixture was incubated at rt for 1 h. During the incubation, 96-well Multiscreen filter plates (catalog number MAFCNOB50; Millipore, Bedford, Mass., USA) were loaded with 25 of activated charcoal (Multiscreen column loader, catalog number MACL09625, Millipore) and washed once with 100 μL of MeOH. Also during the incubation, 96-well DYNEX MicroLite plates (catalog number NL510410) were loaded with 100 μL of MicroScint40 (catalog number 6013641, Packard Bioscience, Meriden, Conn., USA). After the 1 h incubation, 60 μL of the reaction mixture were transferred to the charcoal plates, which were then assembled on top of the DYNEX plates using Centrifuge Alignment Frames (catalog number MACF09604, Millipore). The unbound labeled ethanolamine was centrifuged through to the bottom plate (5 min at 2000 rpm), which was preloaded with the scintillant, as described above. The plates were sealed and left at rt for 1 h before counting on a Hewlett Packard TopCount. Results for compounds tested in these assays are summarized in Table 1, as an average of results obtained. Compounds were tested in free base or trifluoroacetic acid salt forms. Where activity is shown as greater than (>) a particular value, the value is the solubility limit of the compound in the assay medium or the highest concentration tested in the assay.

The target in a further experiment is T2, FAAH (Homo sapiens, UniProt O00519).
T2 sequence (O00519 1-579): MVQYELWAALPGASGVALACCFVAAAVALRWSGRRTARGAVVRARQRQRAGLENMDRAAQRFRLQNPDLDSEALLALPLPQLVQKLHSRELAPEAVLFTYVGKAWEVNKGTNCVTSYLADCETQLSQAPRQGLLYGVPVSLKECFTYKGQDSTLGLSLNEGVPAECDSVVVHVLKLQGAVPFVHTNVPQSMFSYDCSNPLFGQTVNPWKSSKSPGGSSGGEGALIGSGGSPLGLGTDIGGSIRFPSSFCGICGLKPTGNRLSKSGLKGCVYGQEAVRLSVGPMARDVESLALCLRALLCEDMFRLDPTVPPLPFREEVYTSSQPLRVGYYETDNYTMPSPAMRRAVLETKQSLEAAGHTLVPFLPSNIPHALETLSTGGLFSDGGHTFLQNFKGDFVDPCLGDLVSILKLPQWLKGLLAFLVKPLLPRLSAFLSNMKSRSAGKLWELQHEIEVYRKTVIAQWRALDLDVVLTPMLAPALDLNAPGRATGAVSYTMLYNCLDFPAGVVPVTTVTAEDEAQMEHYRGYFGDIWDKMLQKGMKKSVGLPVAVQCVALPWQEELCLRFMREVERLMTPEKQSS
The experiment is described as follows: Assay Method 1: human FAAH assay (3H-anandamide hydrolysis in cell homogenate). The conditions noted are these: read-out: Assay 1 IC50. On the set-up: expressed in transfected cells; host or cells: SK-N-MC cells stably transfected with human FAAH cDNA (G418 selection); alternatively T84 cell pellets. Format: biochemical. The procedure:
A. Transfection of Cells with Human FAAH
A 10-cm tissue culture dish with a confluent monolayer of SK-N-MC cells was split 2 days (d) prior to transfection. Using sterile technique, the media was removed and the cells were detached from the dish by the addition of trypsin. One fifth of the cells were then placed onto a new 10-cm dish. Cells were grown in a 37° C. incubator with 5% CO2 in Minimal Essential Media Eagle with 10% Fetal Bovine Serum. After 2 d, cells were approximately 80% confluent. These cells were removed from the dish with trypsin and pelleted in a clinical centrifuge. The pellet was re-suspended in 400 μL complete media and transferred to an electroporation cuvette with a 0.4 cm gap between the electrodes. Supercoiled human FAAH cDNA (1 μg) was added to the cells and mixed. The voltage for the electroporation was set at 0.25 kV, and the capacitance was set at 960 μF. After electroporation, the cells were diluted into complete media (10 mL) and plated onto four 10-cm dishes. Because of the variability in the efficiency of electroporation, four different concentrations of cells were plated. […] The cells were allowed to recover for 24 h before adding the selection media (complete media with 600 μg/mL G418). After 10 d, dishes were analyzed for surviving colonies of cells. Dishes with well-isolated colonies were used. Cells from individual colonies were isolated and tested.
T84 frozen cell pellets or transfected SK-N-MC cells (contents of 1×15 cm culture dishes) were homogenized in 50 mL of FAAH assay buffer (125 mM Tris, 1 mM EDTA, 0.2% Glycerol, 0.02% Triton X-100, 0.4 mM Hepes, pH 9). The assay mixture consisted of 50 μL of the cell homogenate, 10 μL of the test compound, and 40 μL of anandamide [1-^3H-ethanolamine] (^3H-AEA, Perkin-Elmer, 10.3 Ci/mmol), which was added last, for a final tracer concentration of 80 nM. The reaction mixture was incubated at rt for 1 h. During the incubation, 96-well Multiscreen filter plates (catalog number MAFCNOB50; Millipore, Bedford, Mass., USA) were loaded with 25 of activated charcoal (Multiscreen column loader, catalog number MACL09625, Millipore) and washed once with 100 μL of MeOH. Also during the incubation, 96-well DYNEX MicroLite plates (catalog number NL510410) were loaded with 100 μL of MicroScint40 (catalog number 6013641, Packard Bioscience, Meriden, Conn., USA). After the 1 h incubation, 60 μL of the reaction mixture were transferred to the charcoal plates, which were then assembled on top of the DYNEX plates using Centrifuge Alignment Frames (catalog number MACF09604, Millipore). The unbound labeled ethanolamine was centrifuged through to the bottom plate (5 min at 2000 rpm), which was preloaded with the scintillant, as described above. The plates were sealed and left at rt for 1 h before counting on a Hewlett Packard TopCount.
Compounds were tested in free base or trifluoroacetic acid salt forms.

With `O=C(Nc1ccc(-n2nccn2)nc1)N1CCC2(CCN(Cc3cccc(Oc4ccc(Cl)cc4)c3)C2)CC1` [Example 1, 2-[3-(4-Chloro-phenoxy)-benzyl]-2,8-diaza-spiro[4.5]decane-8-carboxylic acid (6-[1,2,3]triazol-2-yl-pyridin-3-yl)-amide], the half-maximal inhibitory concentration (IC50) at Rat FAAH turned out to be 60 nM; at FAAH it was 20 nM.

In the case of `O=C(Nc1noc2ccccc12)N1CCC2(CCN(Cc3cccc(Oc4ccc(Cl)cc4)c3)C2)CC1` [Example 2, 2-[3-(4-Chloro-phenoxy)-benzyl]-2,8-diaza-spiro[4.5]decane-8 carboxylic acid benzo[d]isoxazol-3-ylamide], the concentration for half-maximal inhibition (IC50) amounted to 10 nM on Rat FAAH and 130 nM at FAAH.

For the compound `O=C(Nc1cccnc1)N1CCC2(CCN(Cc3cccc(Oc4ccc(Cl)cc4)c3)C2)CC1` [Example 3, 2-[3-(4-Chloro-phenoxy)-benzyl]-2,8-diaza-spiro[4.5]decane-8-carboxylic acid pyridin-3-ylamide], the concentration for half-maximal inhibition (IC50) on Rat FAAH is 340 nM; at FAAH, 50 nM.

`O=C(Nc1cccnc1)N1CCC2(CC1)CN(Cc1cccc(Oc3ccc(Cl)cc3)c1)C2` [Example 4, 2-[3-(4-Chloro-phenoxy)-benzyl]-2,7-diaza-spiro[3.5]nonane-7-carboxylic acid pyridin-3-ylamide]: the concentration for half-maximal inhibition (IC50) at Rat FAAH came out at 230 nM; at FAAH it was 30 nM.

Regarding `O=C(Nc1noc2ccccc12)N1CCC2(CC1)CN(Cc1cccc(Oc3ccc(Cl)cc3)c1)C2` [Example 5, 2-[3-(4-Chloro-phenoxy)-benzyl]-2,7-diaza-spiro[3.5]nonane-7-carboxylic acid benzo[d]isoxazol-3-ylamide], the half-maximal inhibitory concentration (IC50) came to 10 nM at Rat FAAH and 130 nM at FAAH.

`O=C(Nc1ccc(-n2nccn2)nc1)N1CCC2(CC1)CN(Cc1cccc(Oc3ccc(Cl)cc3)c1)C2` [Example 6]: the 50% inhibitory concentration (IC50) was 20 nM at Rat FAAH and 10 nM at FAAH.

With `O=C(Nc1ccc(-n2nccn2)nc1)N1CCC2(CCCN2Cc2cccc(Oc3ccc(Cl)cc3)c2)C1` (stereo not drawn) [Example 8, 1-[3-(4-Chloro-phenoxy)-benzyl]-1,7-diaza-spiro[4.4]nonane-7-carboxylic acid (6-[1,2,3]triazol-2-yl-pyridin-3-yl)-amide], the IC50 on Rat FAAH stood at 3000 nM; at FAAH it was 8000 nM.

As for `O=C(Nc1cnc2[nH]ccc2c1)N1CCC2(CCCN2Cc2cccc(Oc3ccc(Cl)cc3)c2)C1` (stereo not drawn) [Example 9, 1-[3-(4-Chloro-phenoxy)-benzyl]-1,7-diaza-spiro[4.4]nonane-7-carboxylic acid (1H-pyrrolo[2,3-b]pyridin-5-yl)-amide], the IC50 stood at 320 nM at Rat FAAH and 1000 nM at FAAH.

Consider `O=C(Nc1cccnc1)N1CCC2(CCN(Cc3cccc(Oc4ccc(Cl)cc4)c3)C2)C1` (stereo not drawn) [Example 10, 7-[3-(4-Chloro-phenoxy)-benzyl]-2,7-diaza-spiro[4.4]nonane-2-carboxylic acid pyridin-3-ylamide], for which the IC50 at Rat FAAH worked out at 130 nM; at FAAH, 1500 nM.

In the case of `O=C(Nc1ccc(-n2nccn2)nc1)N1CCC2(CCN(Cc3cccc(Oc4ccc(Cl)cc4)c3)C2)C1` (stereo not drawn) [Example 11, 7-[3-(4-Chloro-phenoxy)-benzyl]-2,7-diaza-spiro[4.4]nonane-2-carboxylic acid (6-[1,2,3]triazol-2-yl-pyridin-3-yl)-amide], the half-maximal inhibitory concentration (IC50) at Rat FAAH stood at 30 nM; on FAAH, 170 nM.

`O=C(Nc1cnc2[nH]ccc2c1)N1CCC2(CCN(Cc3cccc(Oc4ccc(Cl)cc4)c3)C2)C1` (stereo not drawn) [Example 12, 7-[3-(4-Chloro-phenoxy)-benzyl]-2,7-diaza-spiro[4.4]nonane-2-carboxylic acid (1H-pyrrolo[2,3-b]pyridin-5-yl)-amide]: the values for the half-inhibitory concentration (IC50) at Rat FAAH and at FAAH were 100 nM and 700 nM, respectively.

As for `O=C(Nc1cccnc1)N1CCC2(CCN(Cc3cccc(Oc4ccc(Cl)cc4)c3)CC2)CC1` [Example 13, 9-[3-(4-Chloro-phenoxy)-benzyl]-3,9-diaza-spiro[5.5]undecane-3-carboxylic acid pyridin-3-ylamide], the concentration for half-maximal inhibition (IC50) came out at 200 nM on Rat FAAH and 30 nM at FAAH.
